Calls of active or inactive are those of the source.
Assays:
Melanocortin receptor 4 [1] = target: T1, Melanocortin receptor 4 (Homo sapiens, UniProt P32245); assay: inhibitors of MC4R cAMP signaling – cell-based, TR-FRET, biased antagonists, dose response (AID 602298); format: functional;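 further: antagonist potency against agonist-stimulated cAMP production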
[2] = viability loss of HPDE-C7K cells – cell-based, fluorescence, HTS, primary screen (AID 431); format: functional; details: Homo sapiens
[3] = cAMP pathway inhibition in counterscreen cell line – TR-FRET cAMP detection, counter-screen for MC4R biased antagonist project, dose response (AID 602305); format: functional, cell-based;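 further: U2OS cells stimulated with forskolin near its EC80 as the cAMP inducer; potency is for inhibition of forskolin-stimulated cAMP signaling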
[4] = HepG2 cell cytotoxicity, dose response, cytotoxicity control for non-replicating M. tuberculosis project (AID 489018); format: functional; details: Mycobacterium tuberculosis
[5] = loss of viability in HepG2 cells – cell-based, CellTiter-Glo, cherry-picked, cytotoxicity control for Shn3 inhibitor project, dose response (AID 624134); format: functional
[6] = THP-1 cell cytotoxicity, dose response, cytotoxicity control for non-replicating M. tuberculosis project (AID 489025); format: functional
[7] = reduction of Shn3 3'UTR-driven luciferase in osteoblasts – cell-based, Clone20 osteoblasts, firefly luciferase, cherry-picked, dose response (AID 624132); format: functional;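 further: firefly luciferase luminescence from reporter carrying the Shn3 3'UTR in osteoblasts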
Hexokinase HKDC1 = Hexokinase HKDC1 (Homo sapiens, UniProt Q2TB90); assay: inhibition of HKDC1 glucose phosphorylation – biochemical, W721R variant, dose response (AID 504729); format: functional
Estrogen receptor = target: T2, Estrogen receptor (Homo sapiens, UniProt P03372); assay: ERα coactivator recruitment enhancers – biochemical, TR-FRET, ERα LBD, dose response (AID 737)
T2 sequence (P03372 whole entry): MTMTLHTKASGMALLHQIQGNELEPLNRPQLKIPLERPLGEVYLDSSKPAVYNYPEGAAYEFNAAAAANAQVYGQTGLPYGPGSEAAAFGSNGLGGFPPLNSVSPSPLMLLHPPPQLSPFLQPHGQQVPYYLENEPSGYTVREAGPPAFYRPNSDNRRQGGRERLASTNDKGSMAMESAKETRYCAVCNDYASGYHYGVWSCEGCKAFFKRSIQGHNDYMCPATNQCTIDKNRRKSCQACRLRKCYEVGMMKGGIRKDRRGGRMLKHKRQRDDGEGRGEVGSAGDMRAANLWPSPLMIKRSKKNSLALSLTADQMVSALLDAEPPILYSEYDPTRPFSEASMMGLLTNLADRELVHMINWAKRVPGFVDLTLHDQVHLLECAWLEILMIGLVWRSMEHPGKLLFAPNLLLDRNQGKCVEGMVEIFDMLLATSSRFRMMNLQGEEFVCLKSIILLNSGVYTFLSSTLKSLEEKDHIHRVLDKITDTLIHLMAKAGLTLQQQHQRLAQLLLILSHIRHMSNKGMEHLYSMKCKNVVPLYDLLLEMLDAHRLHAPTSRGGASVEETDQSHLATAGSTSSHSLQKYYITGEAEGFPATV

cells = format: functional
[8] = HPDE-C7 pancreatic duct cell viability loss – fluorescence, HTS (AID 430); format: functional, cell-based; details: Homo sapiens
[9] = target: T3, Polyadenylate-binding protein 1 (Homo sapiens, UniProt P11940); assay: MLLE domain peptide-binding blockers, IC50 – biochemical, fluorescence polarization, FITC-PAM2 peptide, dose response (AID 602259); format: functional; details: read-out: IC50_Mean
T3 sequence (P11940 whole entry, the tested form may be a part): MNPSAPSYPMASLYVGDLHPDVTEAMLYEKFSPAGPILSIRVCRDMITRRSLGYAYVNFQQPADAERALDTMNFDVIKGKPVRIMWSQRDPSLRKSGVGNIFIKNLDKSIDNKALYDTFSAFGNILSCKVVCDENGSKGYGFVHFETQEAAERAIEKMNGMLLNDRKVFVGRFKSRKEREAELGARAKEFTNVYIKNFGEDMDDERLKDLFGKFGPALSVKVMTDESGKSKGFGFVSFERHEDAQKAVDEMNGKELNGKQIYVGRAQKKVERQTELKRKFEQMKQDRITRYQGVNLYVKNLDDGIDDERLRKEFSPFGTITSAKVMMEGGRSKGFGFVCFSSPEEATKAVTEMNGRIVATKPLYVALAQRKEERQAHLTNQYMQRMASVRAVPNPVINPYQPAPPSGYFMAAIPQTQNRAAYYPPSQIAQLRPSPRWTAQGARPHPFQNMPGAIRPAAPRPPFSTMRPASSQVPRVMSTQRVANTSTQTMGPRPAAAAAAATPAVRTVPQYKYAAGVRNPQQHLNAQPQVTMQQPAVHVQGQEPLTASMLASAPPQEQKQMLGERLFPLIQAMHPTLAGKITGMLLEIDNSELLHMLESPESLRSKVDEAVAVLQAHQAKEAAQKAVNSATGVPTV

[10] = target: Endoplasmic reticulum aminopeptidase 1 (Homo sapiens, UniProt Q9NZ08); assay: inhibition of human ERAP1 enzyme activity – biochemical, cherry-pick, set 2, plate reader, dose response (AID 743314)
Chain of Endoplasmic reticulum aminopeptidase 1 (Q9NZ08 whole entry): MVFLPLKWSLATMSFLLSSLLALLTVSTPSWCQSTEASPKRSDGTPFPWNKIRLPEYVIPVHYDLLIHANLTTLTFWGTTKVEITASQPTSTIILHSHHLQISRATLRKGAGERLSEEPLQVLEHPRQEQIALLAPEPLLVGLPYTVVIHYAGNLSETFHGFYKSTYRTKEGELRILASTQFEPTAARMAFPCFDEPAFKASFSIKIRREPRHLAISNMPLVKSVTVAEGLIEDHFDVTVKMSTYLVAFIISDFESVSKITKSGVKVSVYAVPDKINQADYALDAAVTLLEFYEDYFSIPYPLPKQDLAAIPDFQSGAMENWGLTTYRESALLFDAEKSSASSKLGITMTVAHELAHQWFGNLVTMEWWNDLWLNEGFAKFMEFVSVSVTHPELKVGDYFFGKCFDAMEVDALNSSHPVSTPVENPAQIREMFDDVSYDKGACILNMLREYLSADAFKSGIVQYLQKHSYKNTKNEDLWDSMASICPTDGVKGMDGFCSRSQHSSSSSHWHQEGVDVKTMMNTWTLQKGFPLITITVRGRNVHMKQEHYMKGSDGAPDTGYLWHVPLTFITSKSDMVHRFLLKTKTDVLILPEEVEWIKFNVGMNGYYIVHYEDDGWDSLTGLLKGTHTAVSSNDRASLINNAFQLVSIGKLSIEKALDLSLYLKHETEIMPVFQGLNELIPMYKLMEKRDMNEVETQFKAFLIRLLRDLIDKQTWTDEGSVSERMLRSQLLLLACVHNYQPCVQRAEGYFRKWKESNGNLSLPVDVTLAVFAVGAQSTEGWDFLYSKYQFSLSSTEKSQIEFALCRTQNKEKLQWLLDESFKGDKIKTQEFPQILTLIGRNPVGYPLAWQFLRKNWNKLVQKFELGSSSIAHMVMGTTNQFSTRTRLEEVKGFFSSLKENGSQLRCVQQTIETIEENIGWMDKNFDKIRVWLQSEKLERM

[11] = target: T3, Polyadenylate-binding protein 1; assay: MLLE binding blockers, Cy5 peptide tracer – biochemical, fluorescence polarization, Cy5-PAM2 peptide, secondary, miRNA deadenylation inhibitor project, dose response (AID 602260); format: functional; details: read-out: IC50_Mean
Protein Rev = Protein Rev (Human immunodeficiency virus type 1 group M subtype B (isolate HXB2)(HIV-1), UniProt P04618); assay: blockers of HIV Rev/RRE RNA complex – biochemical, fluorescence polarization, HIV-1, dose response (AID 434976); design: species or system Human immunodeficiency virus 1
Chain of Protein Rev (P04618 whole entry): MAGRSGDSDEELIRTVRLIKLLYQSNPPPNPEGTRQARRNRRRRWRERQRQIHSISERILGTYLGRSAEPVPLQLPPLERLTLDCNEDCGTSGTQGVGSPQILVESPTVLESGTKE

[12] = target: Female germline-specific tumor suppressor gld-1 (Caenorhabditis elegans, UniProt Q17339); assay: blockers of GLD-1/TGE RNA complex formation – biochemical, fluorescence polarization, C. elegans, dose response (AID 2802);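 further: fluorescence polarization of labeled TGE RNA bound by purified gld-1 protein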
[13] = target: T3, Polyadenylate-binding protein 1; assay: PABP inhibition in translation initiation, SAR follow-up (AID 435018); format: functional
[14] = target: Eukaryotic translation initiation factor 4H (Homo sapiens, UniProt Q15056); assay: inhibitors of translation initiation factor eIF4H – SAR follow-up (AID 435011); format: functional
Melanocortin receptor 4 [15] = target: T1, Melanocortin receptor 4; format: functional, cell-based
[16] = target: T4, Delta-type opioid receptor (Homo sapiens, UniProt P41143); assay: HTS Image-Based Screen for Antagonists of the DOR Receptor. [Related pubchem assays (depositor defined):AID1777, AID1785, AID1786, AID2133]; format: functional
T4 sequence (P41143 whole entry): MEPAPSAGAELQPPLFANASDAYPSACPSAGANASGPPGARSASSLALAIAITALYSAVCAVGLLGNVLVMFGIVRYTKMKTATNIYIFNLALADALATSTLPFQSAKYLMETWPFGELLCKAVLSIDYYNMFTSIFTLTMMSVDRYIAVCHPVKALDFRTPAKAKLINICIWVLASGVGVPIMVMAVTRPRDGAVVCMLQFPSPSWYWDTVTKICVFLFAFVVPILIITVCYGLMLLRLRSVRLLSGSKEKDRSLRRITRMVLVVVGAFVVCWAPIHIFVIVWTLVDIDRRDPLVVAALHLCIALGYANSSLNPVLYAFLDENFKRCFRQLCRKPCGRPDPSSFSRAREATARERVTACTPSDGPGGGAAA

[17] = target: T5, Kappa-type opioid receptor (Homo sapiens, UniProt P41145); format: functional
T5 sequence (P41145 whole entry): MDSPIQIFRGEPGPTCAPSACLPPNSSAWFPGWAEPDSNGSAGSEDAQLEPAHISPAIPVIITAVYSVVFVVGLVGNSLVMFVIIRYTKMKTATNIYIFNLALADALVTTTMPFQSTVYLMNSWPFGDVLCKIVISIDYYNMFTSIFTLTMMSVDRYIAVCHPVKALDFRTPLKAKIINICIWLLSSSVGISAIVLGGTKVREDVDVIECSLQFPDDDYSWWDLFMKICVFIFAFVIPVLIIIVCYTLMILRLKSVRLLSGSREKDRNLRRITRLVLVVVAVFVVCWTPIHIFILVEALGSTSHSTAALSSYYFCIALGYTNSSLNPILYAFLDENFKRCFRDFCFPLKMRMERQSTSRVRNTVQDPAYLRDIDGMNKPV

Mu-type opioid receptor = Mu-type opioid receptor (Homo sapiens, UniProt P35372); assay: HTS Image-Based Screen for Agonists of the MOR Receptor. [Related pubchem assays (depositor defined):AID1777, AID1785, AID1786, AID2133]; format: functional;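 further: imaging of beta-arrestin GFP recruitment into spots after receptor activation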
Chain of Mu-type opioid receptor (P35372 whole entry): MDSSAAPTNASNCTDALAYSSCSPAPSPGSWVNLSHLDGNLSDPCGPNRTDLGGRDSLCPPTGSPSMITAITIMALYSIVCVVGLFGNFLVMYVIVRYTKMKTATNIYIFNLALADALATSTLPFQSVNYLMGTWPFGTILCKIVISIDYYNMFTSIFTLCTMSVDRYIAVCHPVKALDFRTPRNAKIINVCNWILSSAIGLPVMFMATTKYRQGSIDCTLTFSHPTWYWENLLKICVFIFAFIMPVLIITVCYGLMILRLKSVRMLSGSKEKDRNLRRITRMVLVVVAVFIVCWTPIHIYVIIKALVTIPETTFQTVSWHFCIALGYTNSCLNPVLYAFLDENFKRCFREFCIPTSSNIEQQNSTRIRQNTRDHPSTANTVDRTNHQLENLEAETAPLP

[18] = target: T5, Kappa-type opioid receptor; format: functional; remark: listed apart in the source
[19] = target: T4, Delta-type opioid receptor; assay: HTS Image-Based Screen for Agonists of the DOR Receptor. [Related pubchem assays (depositor defined):AID1777, AID1786, AID2133]; format: functional
Beta-galactosidase = Beta-galactosidase (Escherichia coli, UniProt Q8VNN2); assay: detection-enzyme interference by beta-gal modulators – biochemical, E. coli enzyme, set 3, artefact control for CCR6 antagonist project, dose response (AID 504712); format: functional
Chain of Beta-galactosidase (Q8VNN2 whole entry): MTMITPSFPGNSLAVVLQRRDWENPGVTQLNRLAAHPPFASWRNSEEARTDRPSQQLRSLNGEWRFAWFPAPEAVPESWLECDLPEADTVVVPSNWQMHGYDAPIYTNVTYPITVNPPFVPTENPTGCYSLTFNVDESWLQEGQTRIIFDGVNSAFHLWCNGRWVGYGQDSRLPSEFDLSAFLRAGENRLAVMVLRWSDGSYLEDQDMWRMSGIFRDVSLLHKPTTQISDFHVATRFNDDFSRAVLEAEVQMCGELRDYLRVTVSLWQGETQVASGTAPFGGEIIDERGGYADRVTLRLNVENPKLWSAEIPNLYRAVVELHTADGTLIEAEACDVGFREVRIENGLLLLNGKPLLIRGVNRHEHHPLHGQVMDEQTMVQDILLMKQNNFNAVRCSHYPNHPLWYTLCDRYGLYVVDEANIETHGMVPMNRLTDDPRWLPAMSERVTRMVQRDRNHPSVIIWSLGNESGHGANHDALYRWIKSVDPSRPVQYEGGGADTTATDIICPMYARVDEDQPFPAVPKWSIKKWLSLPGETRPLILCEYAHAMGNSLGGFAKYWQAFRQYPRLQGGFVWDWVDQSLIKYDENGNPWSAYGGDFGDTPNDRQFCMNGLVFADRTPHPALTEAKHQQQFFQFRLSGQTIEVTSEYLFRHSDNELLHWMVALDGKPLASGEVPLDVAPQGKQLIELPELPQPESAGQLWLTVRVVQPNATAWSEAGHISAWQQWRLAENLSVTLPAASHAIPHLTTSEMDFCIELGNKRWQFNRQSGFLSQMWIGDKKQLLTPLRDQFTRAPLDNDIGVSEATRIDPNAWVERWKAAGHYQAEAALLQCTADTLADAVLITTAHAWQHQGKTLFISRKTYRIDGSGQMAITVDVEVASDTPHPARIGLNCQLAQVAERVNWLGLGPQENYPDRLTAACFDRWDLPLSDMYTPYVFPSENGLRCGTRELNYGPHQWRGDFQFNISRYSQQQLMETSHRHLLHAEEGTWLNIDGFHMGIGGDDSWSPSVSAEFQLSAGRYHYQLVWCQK

[20] = target: C-C chemokine receptor type 6 (Homo sapiens, UniProt P51684); assay: antagonism of CCR6 beta-arrestin recruitment – cell-based, luminescent beta-arrestin readout, dose response (AID 504728); format: functional
Chain of C-C chemokine receptor type 6 (P51684 whole entry): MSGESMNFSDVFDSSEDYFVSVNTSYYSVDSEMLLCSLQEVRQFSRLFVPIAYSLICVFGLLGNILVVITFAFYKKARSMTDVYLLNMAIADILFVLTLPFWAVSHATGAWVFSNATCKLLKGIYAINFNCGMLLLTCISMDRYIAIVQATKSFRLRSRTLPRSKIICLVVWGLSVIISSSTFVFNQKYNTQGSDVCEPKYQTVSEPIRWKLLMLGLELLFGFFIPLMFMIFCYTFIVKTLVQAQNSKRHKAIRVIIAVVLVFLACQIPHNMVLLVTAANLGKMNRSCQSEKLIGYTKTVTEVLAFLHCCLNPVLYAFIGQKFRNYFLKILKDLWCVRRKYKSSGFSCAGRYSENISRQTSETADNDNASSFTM

T1 sequence (P32245 whole entry): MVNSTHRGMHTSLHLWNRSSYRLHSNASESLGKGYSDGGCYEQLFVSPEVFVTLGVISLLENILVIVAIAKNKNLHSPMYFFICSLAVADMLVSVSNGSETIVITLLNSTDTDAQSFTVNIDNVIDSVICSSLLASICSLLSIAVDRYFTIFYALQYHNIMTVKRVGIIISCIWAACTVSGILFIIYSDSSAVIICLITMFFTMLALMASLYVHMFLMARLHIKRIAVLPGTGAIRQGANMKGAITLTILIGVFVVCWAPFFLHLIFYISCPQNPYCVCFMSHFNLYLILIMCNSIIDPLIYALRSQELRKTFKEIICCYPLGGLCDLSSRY

CCN(CC)c1ccc2c(c1)oc(=O)c1c(Cl)cc(=O)oc12
IC50 (Melanocortin receptor 4 [1]): > 64.6 µM (inactive) | EC50 [2]: 12.1 µM (active) | IC50 [3]: > 64.6 µM (inactive) | CC50 [4]: 11.7 µM (active) | AC50 [5]: 8.09 µM (active) | CC50 [6]: > 40 µM (active) | AC50 [7]: 2.22 µM (active) | IC50 (Hexokinase HKDC1): 22.4 µM (inactive) | EC50 (Estrogen receptor): 14.6 µM (active) | IC50 (cells): 14.6 µM (active) | EC50 [8]: 14.2 µM (active)

Cc1c(O)ccc2cc(S(=O)(=O)c3ccccc3)c(=O)oc12
IC50 [9]: 46.7 µM (inactive) | AC50 [10]: 3.32 µM (active) | IC50 [11]: > 66 µM (inactive) | IC50 (Protein Rev): 14.2 µM (not active) | IC50 [12]: 4.72 µM (active)

COc1ccc(OC)c([N+]2=C3SCCCN3C(O)(c3cccs3)C2)c1 (stereo unspecified)
IC50 [13]: > 100 µM (inactive) | IC50 [14]: > 100 µM (inactive)

Cc1ccccc1NC(=O)c1ccc(COc2ccc3c(C)cc(=O)oc3c2)cc1
EC50 (Melanocortin receptor 4 [15]): > 89.3 µM (inactive) | IC50 [16]: > 32 µM (inactive) | EC50 [17]: 18.1 µM | EC50 (Mu-type opioid receptor): > 32 µM (inactive) | EC50 [18]: > 35 µM | EC50 [19]: > 32 µM (inactive)

CN(C)CC1CCC/C(=C\c2ccc(OC(=O)c3ccc(Cl)cc3)cc2)C1=O (stereo unspecified)
IC50 (Beta-galactosidase): > 66.6 µM (inactive) | IC50 [20]: 47.6 µM (inactive)
